From the SangsterLogP compilation

Assay: not given
Conditions: not given
A logP of 0.42 was found for `CNC(=O)N(C)S(=O)(=O)c1cccnc1` in this work.
A logP of 0.28 was found for `NC(=O)NS(=O)(=O)Cc1ccccc1` in this work.
A logP of 0.54 was found for `CNC(=O)NS(=O)(=O)Cc1ccccc1` in this work.
A logP of 1.18 was found for `CNC(=O)N(C)S(=O)(=O)Cc1ccccc1` in this work.
A logP of 0.54 was found for `CN(C)C(=O)NS(=O)(=O)Cc1ccccc1` in this work.

Assay: method code SF-AS, from Cloux, J.; Crommen, J.; Delarge, J.; Pirard, M.; Thunus, L. (1988). Attempts at calculating hydrophobic constant of the sulfonylurea group. J Pharm Belg, 43(3)141-151.
Conditions: not given
A logP of 1.95 was found for `CC(C)(C)NC(=O)NS(=O)(=O)c1ccccc1` in this work.
A logP of 0.28 was found for `CN(C)C(=O)NS(=O)(=O)c1ccccc1` in this work.
A logP of 0.28 was found for `NC(=O)NS(=O)(=O)c1ccccc1` in this work.
A logP of 1.44 was found for `CCCNC(=O)NS(=O)(=O)c1ccccc1` in this work.
A logP of 0.9 was found for `CCNC(=O)NS(=O)(=O)c1ccccc1` in this work.
A logP of 0.99 was found for `CCN(CC)C(=O)NS(=O)(=O)c1ccccc1` in this work.
A logP of 1.34 was found for `CC(C)NC(=O)NS(=O)(=O)c1ccccc1` in this work.

Same assay, conditions: pH 3.5
A logD of -0.65 was found for `NC(=O)NS(=O)(=O)c1cccnc1` in this work.
A logD of -0.45 was found for `CNC(=O)NS(=O)(=O)c1cccnc1` in this work.
